Data taken from publication PMC12775434, “Ultra-large virtual screening unveils potent agonists of the neuromodulatory orphan receptor GPR139” (Nature Communications, 2025).
Several values for one entry are separate records, joined by “and”; a condition that tells them apart may be missing. Identical values can stand only once.

Columns and labels:
Assay type in all cases: cell-based
GPR139 (G12 activation) = target: T1, GPR139 (G12 activation) (Homo sapiens, UniProt Q6DWJ6); experiment: BRET G protein activation (dissociation) assay, G12, HEK293A; settings: for G protein activation, G12: individual replicates, listed as JNJ (S)
T1 construct: expressed in transfected cells; host or cells: HEK293A (transient, Lipofectamine 2000)
T1 sequence (Q6DWJ6 1-353): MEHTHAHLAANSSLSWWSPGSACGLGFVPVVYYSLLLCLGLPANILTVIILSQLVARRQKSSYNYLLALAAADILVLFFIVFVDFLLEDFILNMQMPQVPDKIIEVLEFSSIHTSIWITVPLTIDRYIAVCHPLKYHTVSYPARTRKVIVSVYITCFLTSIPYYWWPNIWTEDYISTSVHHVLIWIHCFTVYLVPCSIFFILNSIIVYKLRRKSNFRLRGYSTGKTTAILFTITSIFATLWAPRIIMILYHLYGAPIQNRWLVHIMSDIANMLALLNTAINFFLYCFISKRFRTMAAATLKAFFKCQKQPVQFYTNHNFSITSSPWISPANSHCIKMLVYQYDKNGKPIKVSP
In short: (§1)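 HEK293A cells were reverse-transfected 20–24 h before assay with GPR139, Venus-Gβ1γ2, masGRK3ct-NanoLuc and Gαq, Gαi2, Gαi3 or Gα12; the Gαq and Gα12 sets also got PTX-S1. Compounds and furimazine went on in HEPES buffer at room temperature. The 535/475 nm BRET ratio was read at 20 s (Gq), 15 s (Gi2), 10 s (Gi3) or 90 s (G12), buffer-subtracted, normalized to 10 µM JNJ-63533054, and fitted by variable-slope regression.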

GPR139 (Gi3 activation) = target: T2, GPR139 (Gi3 activation) (Homo sapiens, UniProt Q6DWJ6); experiment: BRET G protein activation (dissociation) assay, Gi3, HEK293A; settings: for G protein activation, Gi3: individual replicates, listed as JNJ (S)
T2 construct: expressed in transfected cells; host or cells: HEK293A (transient, Lipofectamine 2000)
T2 sequence (Q6DWJ6 1-353): T1 sequence (Q6DWJ6 1-353)
In short: as §1

GPR139 (Gi2 activation) = target: T3, GPR139 (Gi2 activation) (Homo sapiens, UniProt Q6DWJ6); experiment: BRET G protein activation (dissociation) assay, Gi2, HEK293A; settings: for G protein activation, Gi2: individual replicates, listed as JNJ (S)
T3 construct: expressed in transfected cells; host or cells: HEK293A (transient, Lipofectamine 2000)
T3 sequence (Q6DWJ6 1-353): T1 sequence (Q6DWJ6 1-353)
In short: as §1

GPR139 (GoA activation) = target: T4, GPR139 (GoA activation) (Homo sapiens, UniProt Q6DWJ6); experiment: BRET G protein activation (dissociation) assay, GoA, HEK293A; settings: for G protein activation, GoA: individual replicates, listed as JNJ (S)
T4 construct: expressed in transfected cells; host or cells: HEK293A (transient, Lipofectamine 2000)
T4 sequence (Q6DWJ6 1-353): T1 sequence (Q6DWJ6 1-353)
In short: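 HEK293A cells were reverse transfected 20–24 h beforehand with GPR139, Venus 1-155 Gγ2, Venus 159-239 Gβ1, masGRK3ct-NanoLuc and 12.6 ng GαoA using Lipofectamine 2000. Cells were plated at 50,000 per well in poly-D-lysine-coated white 96-well plates. After washing in HEPES buffer, compounds and 1000-fold diluted furimazine were added. The 535 nm/475 nm BRET ratio was read at 15 s and corrected for buffer basal.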

[1] = HEK293-A, normalized to JNJ-63533054 (JNJ(S))

Emax (GPR139 (G12 activation); [1]): 57 ± 1%
EC50 (GPR139 (G12 activation); Supplementary Table 6, read-out: pEC50 G12 (converted)): 25.1 nM
Emax (GPR139 (Gi3 activation); [1]): 56 ± 4%
EC50 (GPR139 (Gi3 activation); Supplementary Table 6, read-out: pEC50 Gi3 (converted)): 100 nM
Emax (GPR139 (Gi2 activation); [1]): 109 ± 1%
EC50 (GPR139 (Gi2 activation); Supplementary Table 6, read-out: pEC50 Gi2 (converted)): 50.1 nM
Emax (GPR139 (GoA activation); [1]): 114 ± 2%
EC50 (GPR139 (GoA activation); Supplementary Table 6): 79.4 nM
Structure (SMILES): CC(NC(=O)CNC(=O)c1cccc(Cl)c1)c1ccccc1 (stereo not shown) [JNJ-63533054, reference compound]
G protein activation, G12 (GPR139 (G12 activation); log [compound] M -4.5): 60 % of JNJ-63533054 at Gi2 (2×) and 57 % of JNJ-63533054 at Gi2
G protein activation, G12 (GPR139 (G12 activation); log [compound] M -5.0): 55 % of JNJ-63533054 at Gi2 and 54 % of JNJ-63533054 at Gi2 and 57 % of JNJ-63533054 at Gi2
G protein activation, G12 (GPR139 (G12 activation); log [compound] M -5.5): 53 % of JNJ-63533054 at Gi2 and 55 % of JNJ-63533054 at Gi2 and 54 % of JNJ-63533054 at Gi2
G protein activation, G12 (GPR139 (G12 activation); log [compound] M -6.0): 50 % of JNJ-63533054 at Gi2 and 51 % of JNJ-63533054 at Gi2 and 53 % of JNJ-63533054 at Gi2
G protein activation, G12 (GPR139 (G12 activation); log [compound] M -6.5): 52 % of JNJ-63533054 at Gi2 and 46 % of JNJ-63533054 at Gi2 and 48 % of JNJ-63533054 at Gi2
G protein activation, G12 (GPR139 (G12 activation); log [compound] M -7.0): 47 % of JNJ-63533054 at Gi2 and 42 % of JNJ-63533054 at Gi2 and 38 % of JNJ-63533054 at Gi2
G protein activation, G12 (GPR139 (G12 activation); log [compound] M -7.5): 32 % of JNJ-63533054 at Gi2 and 33 % of JNJ-63533054 at Gi2 and 26 % of JNJ-63533054 at Gi2
G protein activation, G12 (GPR139 (G12 activation); log [compound] M -8.0): 22 % of JNJ-63533054 at Gi2 and 21 % of JNJ-63533054 at Gi2 and 16 % of JNJ-63533054 at Gi2
G protein activation, Gi3 (GPR139 (Gi3 activation); log [compound] M -4.5): 63 % of JNJ-63533054 at Gi2 and 48 % of JNJ-63533054 at Gi2 and 54 % of JNJ-63533054 at Gi2
G protein activation, Gi3 (GPR139 (Gi3 activation); log [compound] M -5.0): 59 % of JNJ-63533054 at Gi2 and 44 % of JNJ-63533054 at Gi2 and 57 % of JNJ-63533054 at Gi2
G protein activation, Gi3 (GPR139 (Gi3 activation); log [compound] M -5.5): 57 % of JNJ-63533054 at Gi2 and 41 % of JNJ-63533054 at Gi2 and 51 % of JNJ-63533054 at Gi2
G protein activation, Gi3 (GPR139 (Gi3 activation); log [compound] M -6.0): 52 % of JNJ-63533054 at Gi2 and 39 % of JNJ-63533054 at Gi2 and 42 % of JNJ-63533054 at Gi2
G protein activation, Gi3 (GPR139 (Gi3 activation); log [compound] M -6.5): 48 % of JNJ-63533054 at Gi2 and 28 % of JNJ-63533054 at Gi2 and 40 % of JNJ-63533054 at Gi2
G protein activation, Gi3 (GPR139 (Gi3 activation); log [compound] M -7.0): 37 % of JNJ-63533054 at Gi2 and 22 % of JNJ-63533054 at Gi2 and 29 % of JNJ-63533054 at Gi2
G protein activation, Gi3 (GPR139 (Gi3 activation); log [compound] M -7.5): 26 % of JNJ-63533054 at Gi2 and 11 % of JNJ-63533054 at Gi2 and 24 % of JNJ-63533054 at Gi2
G protein activation, Gi3 (GPR139 (Gi3 activation); log [compound] M -8.0): 10 % of JNJ-63533054 at Gi2 and 5.6 % of JNJ-63533054 at Gi2 and 14 % of JNJ-63533054 at Gi2
G protein activation, Gi2 (GPR139 (Gi2 activation); log [compound] M -4.5): 109 % of JNJ-63533054 at Gi2 and 111 % of JNJ-63533054 at Gi2 and 108 % of JNJ-63533054 at Gi2
G protein activation, Gi2 (GPR139 (Gi2 activation); log [compound] M -5.0): 106 % of JNJ-63533054 at Gi2 and 107 % of JNJ-63533054 at Gi2 and 108 % of JNJ-63533054 at Gi2
G protein activation, Gi2 (GPR139 (Gi2 activation); log [compound] M -5.5): 107 % of JNJ-63533054 at Gi2 and 103 % of JNJ-63533054 at Gi2 and 104 % of JNJ-63533054 at Gi2
G protein activation, Gi2 (GPR139 (Gi2 activation); log [compound] M -6.0): 102 % of JNJ-63533054 at Gi2 and 99 % of JNJ-63533054 at Gi2 and 98 % of JNJ-63533054 at Gi2
G protein activation, Gi2 (GPR139 (Gi2 activation); log [compound] M -6.5): 92 % of JNJ-63533054 at Gi2 and 85 % of JNJ-63533054 at Gi2 (2×)
G protein activation, Gi2 (GPR139 (Gi2 activation); log [compound] M -7.0): 75 % of JNJ-63533054 at Gi2 and 67 % of JNJ-63533054 at Gi2 and 70 % of JNJ-63533054 at Gi2
G protein activation, Gi2 (GPR139 (Gi2 activation); log [compound] M -7.5): 49 % of JNJ-63533054 at Gi2 and 44 % of JNJ-63533054 at Gi2 (2×)
G protein activation, Gi2 (GPR139 (Gi2 activation); log [compound] M -8.0): 21 % of JNJ-63533054 at Gi2 (2×) and 20 % of JNJ-63533054 at Gi2
G protein activation, GoA (GPR139 (GoA activation); log [compound] M -4.5): 119 % of JNJ-63533054 at Gi2 (2×) and 112 % of JNJ-63533054 at Gi2
G protein activation, GoA (GPR139 (GoA activation); log [compound] M -5.0): 117 % of JNJ-63533054 at Gi2 (2×) and 106 % of JNJ-63533054 at Gi2
G protein activation, GoA (GPR139 (GoA activation); log [compound] M -5.5): 113 % of JNJ-63533054 at Gi2 and 106 % of JNJ-63533054 at Gi2 (2×)
G protein activation, GoA (GPR139 (GoA activation); log [compound] M -6.0): 108 % of JNJ-63533054 at Gi2 and 94 % of JNJ-63533054 at Gi2 and 102 % of JNJ-63533054 at Gi2
G protein activation, GoA (GPR139 (GoA activation); log [compound] M -6.5): 97 % of JNJ-63533054 at Gi2 and 82 % of JNJ-63533054 at Gi2 and 91 % of JNJ-63533054 at Gi2
G protein activation, GoA (GPR139 (GoA activation); log [compound] M -7.0): 74 % of JNJ-63533054 at Gi2 and 64 % of JNJ-63533054 at Gi2 and 65 % of JNJ-63533054 at Gi2
G protein activation, GoA (GPR139 (GoA activation); log [compound] M -7.5): 43 % of JNJ-63533054 at Gi2 and 34 % of JNJ-63533054 at Gi2 and 33 % of JNJ-63533054 at Gi2
G protein activation, GoA (GPR139 (GoA activation); log [compound] M -8.0): 17 % of JNJ-63533054 at Gi2 and 12 % of JNJ-63533054 at Gi2 and 13 % of JNJ-63533054 at Gi2
